The values below come from US9745339B2 (GRAFFINITY PHARMACEUTICALS GMBH, priority 2012, dated 2017).

In data set [1] the target is T1, Bevacizumab (Homo sapiens, UniProt P01857).
T1 construct: 0.5 mg/ml IgG in PBS pH 7.3; ligand immobilized on SEPHAR; Bevacizumab Yield; other: mass eluted (glycine pH 2.5) / mass injected; kd (dissociation constant, Langmuir isotherm); other: Bevacizumab 0.05-5 mg/ml in PBS pH 7.3, 25° C., at least 3 h; qm (maximum capacity); other: mg Bevacizumab per ml of resin; Langmuir isotherm; t0; fused on or other part: Humanized anti-VEGF-A VH domain joined N-terminally to the IGHG1 constant region (engineered, no UniProt entry)
Nature of the data set: Microtiter plate chromatography of resins: binding and elution of Bevacizumab. The following applies: for Bevacizumab Bound: fraction of injected protein bound, 0.5 mg/ml IgG in PBS pH 7.3, ligand immobilized on SEPHAROSE 4 FF; for Bevacizumab Yield: mass eluted (glycine pH 2.5) / mass injected. A digest of the protocol:
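About 30 μl packed resin columns loaded with 3.3 cv IgG at 0.5 mg ml^−1 in PBS or undiluted HCP, washed with 5 cv PBS, eluted with 5 cv glycine pH 2.5. Protein in fractions by Bradford. Bound fraction = (injected − flowthrough)/injected; yield = eluted/injected; selectivity = Bevacizumab bound fraction / HCP bound fraction, truncated beyond 10.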

For data set [2], the system named is Tocilizumab. Nature of the data set: Microtiter plate chromatography of resins: binding and elution of Tocilizumab. The following applies: fraction of injected protein bound; 0.5 mg/ml IgG in PBS pH 7.3. Put shortly: (§1)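 About 30 μl resin columns loaded with 3.3 cv IgG at 0.5 mg ml^−1 in PBS (or undiluted HCP), washed with 5 cv PBS, eluted with 5 cv glycine pH 2.5. Fractions quantified by Bradford; bound fraction = (mi−mft)/mi, yield = me/mi.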

In data set [3] the test system is Palivizumab. Nature of the data set: Microtiter plate chromatography of resins: binding and elution of Palivizumab. The following applies: fraction of injected protein bound; 0.5 mg/ml IgG in PBS pH 7.3. Put shortly:
as §1

The test system of data set [4] is Cetuximab. Nature of the data set: Microtiter plate chromatography of resins: binding and elution of Cetuximab. The following applies: fraction of injected protein bound; 0.5 mg/ml IgG in PBS pH 7.3. A digest of the protocol:
as §1

The test system of data set [5] is poly-IgG from human serum (h-poly-IgG). Nature of the data set: Microtiter plate chromatography of resins: binding and elution of human poly-IgG. The following applies: fraction of injected protein bound; 0.5 mg/ml IgG in PBS pH 7.3. A digest of the protocol:
as §1

Data set [6] relates to host cell proteins (HCP). Nature of the data set: Microtiter plate chromatography of resins: binding of host cell proteins. The following applies: fraction of injected undiluted host cell proteins bound. On the set-up: species or system CHO cell culture. Put shortly: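 Undiluted HCP-containing flowthrough from protein A chromatography of CHO serum-free culture was loaded onto ~30 µl packed resin columns in microtiter-plate format. Columns were washed with 5 cv PBS and eluted with glycine pH 2.5, and fractions were quantified by Bradford. Bound fraction = (injected − flowthrough mass)/injected mass.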

For data set [7], the target named is T1, Bevacizumab. Nature of the data set: Langmuir isotherms by batch adsorption. Type of data set: binding. The following applies: for qm (maximum capacity): mg Bevacizumab per ml of resin, Langmuir isotherm; for Kd: Bevacizumab 0.05-5 mg/ml in PBS pH 7.3, 25° C., at least 3 h, read-out: kd (dissociation constant, Langmuir isotherm) (converted).
For data set [8], the target named is T1, Bevacizumab. Nature of the data set: Uptake kinetics by batch adsorption (time-scale of binding). The following applies: time after which 80% of equilibrium saturation occurred; 0.75 mg/ml Bevacizumab in PBS, 25° C. How it is done: Uptake kinetics was investigated similarly by batch adsorption in 96-well filter plates. Again, 10 μl of sorbent slurry (50% v/v) were mixed with 100 μl of protein solution. […] Reactions were agitated vigorously at 25° C. for up to 80 min. Supernatants were separated rapidly by spinning through filters after 2.5, 5, 10, 20, 40 and 80 minutes and sampled for analysis. Concentrations of the antibody were analyzed by Bradford assay.
For determination of t0.8, measured concentrations in the supernatant were interpolated by fitting of double-exponentials and values of t0.8 were read out from graphs (2).

In data set [9] the target is T1, Bevacizumab. Nature of the data set: Dynamic binding capacity by column chromatography. How it is done: Dynamic binding capacities were determined by column chromatography with purified Bevacizumab. Resins were packed into analytical columns of 25 mm length and 3 mm inner diameter. Columns were fed with 1 mg/ml antibody in phosphate-buffered saline (150 mM NaCl, 20 mM phosphate buffer, pH 7.3) at a flow rate of 50 cm/h (3 min column residence time), while the concentration of antibody in effluents was monitored online via absorbance at 280 nm. Antibody was loaded until complete breakthrough of the feed. Dynamic binding capacities were determined at the 10% breakthrough. Equilibrium capacities were determined by integration of the area above the breakthrough curve. Bound antibody was stripped from columns by elution with glycine at pH 3.0.
It was calculated as the time t0.1 after which 10% breakthrough occurred, multiplied by the flow rate F and feed concentration cf. dynamiccapacity=t0.1·F·cf
Equilibrium capacity is defined as the maximum amount of antibody that binds to a column for a given feed stream concentration. It was calculated by evaluation of the following integral
[formula] containing the feed concentration cf, effluent concentration over time c(t) and flow rate F. The integral was evaluated numerically. Integration was limited to the time after which complete breakthrough had occurred. […]

Data set [10] is described as follows: Alkaline stability of ligands in 0.5 M sodium hydroxide. Type of data set: physicochemical. The following applies: 25° C., 8 days, hydrolysis monitored by LC-MS, read-out: t0.5 (half-life) (converted). How it is done:
A subset of ligands from Example 1 was tested for its alkaline stability. Ligands were treated with 0.5 M sodium hydroxide at 25° C. for 8 days. Hydrolysis was monitored by LC-MS analysis.

As a reminder, the half-life is the time in which the quantity being followed falls by half. Take `NCCCn1cnc2cc(C(=O)Nc3nnc(-c4ccco4)s3)ccc21` [Ligand L05, 1-(3-Amino-1-propyl)benzimidazole-5-carboxylic acid N-[5-(2-furyl)-1,3,4-thiadiazol-2-yl]amide]: in data set [1], the “Bevacizumab Bound” value turned out to be 100% and the “Bevacizumab Yield” value is 101%. In data set [2], the “Tocilizumab Bound” value is listed as 100%. Besides, the “Palivizumab Bound” value in data set [3] turned out to be 100%. Besides, in data set [4], the “Cetuximab Bound” value turned out to be 100%. The “h-poly-IgG Bound” value in data set [5] was 100%. Further, the “HCP Bound” value in data set [6] turned out to be 17%. The “qm (maximum capacity)” value in data set [7] worked out at 47 mg/mL. For the same compound, in data set [8], the “t0.8 (time-scale of binding)” value worked out at 9.8 min. The “Dynamic Capacity” value in data set [9] (10% breakthrough, 1 mg/ml Bevacizumab, 50 cm/h (3 min residence time)) turned out to be 25 mg/mL. Further, in data set [9] (feed concentration 1 mg/ml Bevacizumab, integration above breakthrough curve), the “Equilibrium Capacity” value was 39 mg/mL. Further, the half-life in data set [10] is over 41.6 days.
What is called Kd is the free concentration of one partner at which half of the binding sites on the other are occupied at equilibrium, for simple one-to-one binding. Turning to `CCc1nnc(NC(=O)c2ccc3c(c2)ncn3CCCN)s1` [Ligand L07, 1-(3-Amino-1-propyl)benzimidazole-5-carboxylic acid N-(2-ethyl-1,3,4-thiadiazol-5-yl) amide], in [1], the “Bevacizumab Bound” value was 100% and the “Bevacizumab Yield” value is 93%. Further, in data set [2], the “Tocilizumab Bound” value is listed as 100%. The “Palivizumab Bound” value in data set [3] amounted to 90%. Moreover, the “Cetuximab Bound” value in data set [4] was found to be 100%. In addition, the “h-poly-IgG Bound” value in data set [5] is given as 94%. Moreover, the “HCP Bound” value in [6] is on record as 23%. Further, in data set [7], the Kd is 200 µM and the “qm (maximum capacity)” value was 38 mg/mL. Besides, the “t0.8 (time-scale of binding)” value in data set [8] is recorded as 8.8 min. In data set [10], the half-life is over 41.6 days.
As to `Cc1nc2cc(C(=O)Nc3nc(-c4ccccn4)cs3)ccc2n1CCCN` [Ligand L42, 1-(3-Amino-1-propyl)-2-methylbenzimidazole-5-carboxylic acid N-[4-(2-pyridyl)thiazol-2-yl] amide], in data set [1], the “Bevacizumab Bound” value turned out to be 100% and the “Bevacizumab Yield” value was found to be 98%. For the same compound, in data set [2], the “Tocilizumab Bound” value is 100%. Further, in data set [3], the “Palivizumab Bound” value was found to be 97%. Moreover, the “Cetuximab Bound” value in data set [4] is recorded as 100%. For the same compound, in data set [5], the “h-poly-IgG Bound” value is 100%. Also, the “HCP Bound” value in data set [6] turned out to be 13.5%. Also, in [7], the Kd was 318 µM and the “qm (maximum capacity)” value turned out to be 45 mg/mL. Moreover, the “t0.8 (time-scale of binding)” value in data set [8] is reported as 7.6 min. For the same compound, the half-life in data set [10] is over 41.6 days.
Consider `NCCCNc1ccc(C(=O)Nc2nnc(-c3ccco3)s2)cn1` [Ligand L19, 6-[(3-Amino-1-propyl)amino]nicotinic acid N-[5-(2-furyl)-1,3,4-thiadiazol-2-yl]amide], for which, in data set [1], the “Bevacizumab Bound” value is recorded as 100% and the “Bevacizumab Yield” value was 98%. Besides, the “Tocilizumab Bound” value in data set [2] turned out to be 100%. Also, the “Palivizumab Bound” value in data set [3] amounted to 99%. For the same compound, the “Cetuximab Bound” value in [4] was determined as 100%. In addition, in data set [5], the “h-poly-IgG Bound” value was found to be 98%. The “HCP Bound” value in data set [6] worked out at 14%. For the same compound, in [7], the Kd is 578 µM and the “qm (maximum capacity)” value was 42 mg/mL. Also, in [8], the “t0.8 (time-scale of binding)” value is listed as 8.9 min. The half-life in data set [10] was over 41.6 days.
`NCCCn1cnc2cc(C(=O)Nc3nc(-c4cccnc4)cs3)ccc21` [Ligand L46, 1-(3-Amino-1-propyl)benzimidazole-5-carboxylic acid N-[4-(3-pyridyl)thiazol-2-yl] amide]: in data set [1], the “Bevacizumab Bound” value is reported as 100% and the “Bevacizumab Yield” value is given as 103%. The “Tocilizumab Bound” value in [2] stood at 100%. In addition, the “Palivizumab Bound” value in data set [3] worked out at 98%. Further, the “Cetuximab Bound” value in data set [4] was determined as 100%. In addition, in data set [5], the “h-poly-IgG Bound” value is given as 100%. Also, in data set [6], the “HCP Bound” value worked out at 17%. Also, in data set [7], the Kd is 185 µM and the “qm (maximum capacity)” value came to 48 mg/mL. Moreover, the “t0.8 (time-scale of binding)” value in data set [8] came out at 6.0 min. The half-life in [10] was 30 days.
Consider `NCCCn1cnc2cc(NC(=O)c3cn4ccsc4n3)ccc21` [Ligand L30, 1-(3-Amino-1-propyl)-5-[(imidazo-[2,1-b]thiazol-6-yl)carboxamido]benzimidazole], for which, in data set [1], the “Bevacizumab Bound” value is 100% and the “Bevacizumab Yield” value was 100%. Moreover, the “Tocilizumab Bound” value in [2] was found to be 100%. Moreover, in data set [3], the “Palivizumab Bound” value came out at 93%. Also, the “Cetuximab Bound” value in [4] is listed as 100%. The “h-poly-IgG Bound” value in data set [5] turned out to be 94%. Also, the “HCP Bound” value in data set [6] amounted to 21%. Moreover, in data set [7], the Kd is 358 µM and the “qm (maximum capacity)” value amounted to 40 mg/mL. Also, the “t0.8 (time-scale of binding)” value in data set [8] came to 9.3 min. For the same compound, the half-life in [10] is 37.6 days.
